pEC50: −log10 of the molar value.
molecular target: T1, human parathyroid cell Ca2+ receptor (hPCaR) (Homo sapiens, UniProt P41180); assay: [Ca2+]i fluorescence assay in HEK 293 4.0-7 cells expressing hPCaR; format: cell-based; settings: buffer with 1 mM CaCl2
T1 construct: expressed in transfected cells
T1 sequence (P41180 20-1078): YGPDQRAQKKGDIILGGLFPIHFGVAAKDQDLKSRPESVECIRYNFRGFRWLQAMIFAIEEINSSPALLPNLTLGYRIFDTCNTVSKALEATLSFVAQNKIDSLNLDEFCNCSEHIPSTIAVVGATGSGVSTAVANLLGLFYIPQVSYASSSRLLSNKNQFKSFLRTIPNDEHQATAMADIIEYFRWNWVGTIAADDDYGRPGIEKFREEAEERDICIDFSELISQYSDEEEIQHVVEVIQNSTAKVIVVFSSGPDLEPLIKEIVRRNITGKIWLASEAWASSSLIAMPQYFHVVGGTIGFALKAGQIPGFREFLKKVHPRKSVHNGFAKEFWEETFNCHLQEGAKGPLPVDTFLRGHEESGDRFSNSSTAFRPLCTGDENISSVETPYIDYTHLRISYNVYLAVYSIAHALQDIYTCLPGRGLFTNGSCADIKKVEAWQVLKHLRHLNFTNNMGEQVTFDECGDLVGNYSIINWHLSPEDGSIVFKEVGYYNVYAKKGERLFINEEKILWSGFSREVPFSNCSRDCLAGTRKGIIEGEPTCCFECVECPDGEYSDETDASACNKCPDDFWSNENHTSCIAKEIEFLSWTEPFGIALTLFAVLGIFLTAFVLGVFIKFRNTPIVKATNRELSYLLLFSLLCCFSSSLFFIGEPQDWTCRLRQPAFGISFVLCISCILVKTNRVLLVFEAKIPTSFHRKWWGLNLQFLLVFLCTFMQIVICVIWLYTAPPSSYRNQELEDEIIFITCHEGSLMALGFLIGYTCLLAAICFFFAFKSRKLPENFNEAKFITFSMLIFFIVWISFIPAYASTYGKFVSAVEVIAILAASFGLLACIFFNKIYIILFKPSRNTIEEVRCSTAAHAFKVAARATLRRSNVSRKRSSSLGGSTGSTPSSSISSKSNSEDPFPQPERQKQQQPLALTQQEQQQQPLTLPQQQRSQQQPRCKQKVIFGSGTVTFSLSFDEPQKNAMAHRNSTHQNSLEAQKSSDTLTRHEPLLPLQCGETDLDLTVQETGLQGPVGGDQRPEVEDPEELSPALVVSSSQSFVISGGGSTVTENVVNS
Description: The activities of the compounds of the present invention on calcium receptors were measured. In one embodiment, the measurement was performed in accordance with the method described in Example 4 of Nemeth et al., PCT/US95/13704 (International Publication No. WO96/12697) herein incorporated by reference.
A 4.0-kb NotI-HindIII fragment of the human parathyroid cell Ca^2+ receptor (hPCaR) cDNA was subcloned into the mammalian expression vector pCEP4 (Invitrogen) containing the hygromycin-resistant gene as a selectable marker. This plasmid was transfected into HEK 293 cells by calcium phosphate precipitation. Transfected cells were grown in Dulbecco's modified Eagle's medium containing 10% fetal bovine serum and hygromycin (200 μg/mL). Hygromycin-resistant colonies were subcloned and assayed for hPCaR mRNA by solution hybridization using a ^32P-labeled RNA probe complementary to the (4.0 kb) hPCaR sequence (Garrett, et al., J. Biol. Chem. 270, 12919-12925 (1995)). Clone 7 was used to assess the effects of compounds on [Ca^2+]i. This stably transfected cell line was termed HEK 293 4.0-7. For measurements of [Ca^2+]i, the cells were recovered from tissue culture flasks by brief treatment with Versene (Invitrogen; Containing 0.2 g/L EDTA.4Na in phosphate-buffered saline) and then seeded in collagen coated 384-well plates (BD Biosciences) at 20K cells per well in the growth media (same as above). Cells were grown in 37c TC incubator overnight. Then, the media was discarded and cells were loaded with 1× dye from Ca^2+ Assay Kit I (BD Biosciences) in parathyroid cell buffer (126 mM NaCl, 4 mM KCl, 1 mM MgSO4, 0.7 mM K2HPO4/KH2PO4, 20 mM HEPES.NaOH (pH 7.45)) containing 0.5% BSA and 1 mM CaCl2. Cells were loaded at room temperature for 90 minutes. Each test compound was added to the cells and the fluorescence was recorded by using excitation and emission wavelengths of 485 and 530 nm, respectively.

SMILES | pEC50
CS(=O)(=O)Nc1ccc(-c2csc(NC(=O)N(CCCC(N)=O)CCC(c3ccccc3)c3ccccc3)n2)cc1 [Example 68, 1-(4-amino-4-oxobutyl)-1-(3,3-diphenylpropyl)-3-(4-(4-(methylsulfonamido)phenyl)thiazol-2-yl)urea] | > 7.00
CC(CN(CCC(c1ccccc1)c1ccccc1)C(=O)Nc1nc(-c2ccccc2)cs1)C(=O)O (stereo not shown) [Example 69, 3-(1-(3,3-diphenylpropyl)-3-(4-phenylthiazol-2-yl)ureido)-2-methylpropanoic acid] | > 7.00
CN(C)C(=O)CCCN(CCC(c1ccccc1)c1ccccc1)C(=O)Nc1nc2ccccc2s1 [Example 89, 3-(benzo[d]thiazol-2-yl)-1-(4-(dimethylamino)-4-oxobutyl)-1-(3,3-diphenylpropyl)urea] | > 7.00
C[C@@H]1CNCCN1C(=O)CCCN(CCC(c1ccccc1)c1ccccc1)C(=O)Nc1nc(-c2ccccc2)cs1 [Example 91, (R)-1-(3,3-diphenylpropyl)-1-(4-(2-methylpiperazin-1-yl)-4-oxobutyl)-3-(4-phenylthiazol-2-yl)urea] | 6.00 to 7.00
CS(=O)(=O)Nc1ccc(-c2nc(NC(=O)N(CCOC(N)=O)CCC(c3ccccc3)c3ccccc3)sc2Cl)cc1 [Example 132, 2-(3-(5-chloro-4-(4-(methylsulfonamido)phenyl)thiazol-2-yl)-1-(3,3-diphenylpropyl)ureido)ethyl carbamate] | > 7.00
CC(CN(CCC(c1ccccc1)c1ccccc1)C(=O)Nc1nc2ccccc2s1)C(=O)O (stereo not shown) [Example 122, 3-(3-(benzo[d]thiazol-2-yl)-1-(3,3-diphenylpropyl)ureido)-2-methylpropanoic acid] | 5.30 to 6.00
O=C(CCCN(CCC(c1ccccc1)c1ccccc1)C(=O)Nc1nc2ccccc2s1)N[C@H]1CCCNC1 [Example 74, (S)-3-(benzo[d]thiazol-2-yl)-1-(3,3-diphenylpropyl)-1-(4-oxo-4-(piperidin-3-ylamino)butyl)urea] | > 7.00
O=C(O)CCN(CCC(c1ccccc1)c1ccccc1)C(=O)Nc1nc2ccccc2s1 [Example 114, 3-(3-(benzo[d]thiazol-2-yl)-1-(3,3-diphenylpropyl)ureido)propanoic acid] | 6.00 to 7.00
CS(=O)(=O)Nc1ccc(-c2nc(NC(=O)N(CCNC(=O)C3CCCNC3)CCC(c3ccccc3)c3ccccc3)sc2Cl)cc1 (stereo not shown) [Example 131, 3-(5-chloro-4-(4-(methylsulfonamido)phenyl)thiazol-2-yl)-1-(3,3-diphenylpropyl)-1-(2-(piperidine-3-carboxamido)ethyl)urea] | > 7.00
CS(=O)(=O)Nc1ccc(-c2nc(NC(=O)N(CCCO)CCC(c3ccccc3)c3ccccc3)sc2Cl)cc1 [Example 134, 3-(5-chloro-4-(4-(methylsulfonamido)phenyl)thiazol-2-yl)-1-(3,3-diphenylpropyl)-1-(3-hydroxypropyl)urea] | > 7.00
CS(=O)(=O)Nc1ccc(-c2nc(NC(=O)N(CCC(c3ccccc3)c3ccccc3)CCS(N)(=O)=O)sc2Cl)cc1 [Example 136, 2-[{[(5-chloro-4-{4-[(methylsulfonyl)amino]phenyl}-1,3-thiazol-2-yl)amino]carbonyl}(3,3-diphenylpropyl)amino]ethanesulfonamide] | > 7.00
CS(=O)(=O)Nc1ccc(-c2csc(NC(=O)N(CCNC(=O)C3CCCNC3)CCC(c3ccccc3)c3ccccc3)n2)cc1 (stereo not shown) [Example 130, 1-(3,3-diphenylpropyl)-3-(4-(4-(methylsulfonamido)phenyl)thiazol-2-yl)-1-(2-(piperidine-3-carboxamido)ethyl)urea] | > 7.00
O=C(CCCN(CCC(c1ccccc1)c1ccccc1)C(=O)Nc1nc2ccccc2s1)NC1CCNCC1 [Example 75, 3-(benzo[d]thiazol-2-yl)-1-(3,3-diphenylpropyl)-1-(4-oxo-4-(piperidin-4-ylamino)butyl)urea] | > 7.00
N#Cc1ccc(-c2nc(NC(=O)N(CCCC(=O)O)CCC(c3ccccc3)c3ccccc3)sc2Cl)cc1 [Example 92, 4-(3-(5-chloro-4-(4-cyanophenyl)thiazol-2-yl)-1-(3,3-diphenylpropyl)ureido)butanoic acid] | 6.00 to 7.00
C[C@@H]1CN(C(=O)CCCN(CCC(c2ccccc2)c2ccccc2)C(=O)Nc2nc(-c3ccccc3)cs2)CCN1 [Example 99, (R)-1-(3,3-diphenylpropyl)-1-(4-(3-methylpiperazin-1-yl)-4-oxobutyl)-3-(4-phenylthiazol-2-yl)urea] | 6.00 to 7.00
O=C(O)CCN(CCC(c1ccccc1)c1ccccc1)C(=O)Nc1nc(-c2ccccc2)c(Cl)s1 [Example 121, 3-(3-(5-chloro-4-phenylthiazol-2-yl)-1-(3,3-diphenylpropyl)ureido)propanoic acid] | 5.30 to 6.00
CC(C)(C)OC(=O)CCCN(CCC(c1ccccc1)c1ccccc1)C(=O)Nc1nc2ccccc2s1 [Example 101, tert-butyl 4-(3-(benzo[d]thiazol-2-yl)-1-(3,3-diphenylpropyl)ureido)butanoate] | 6.00 to 7.00

The next lines start with the values.

pEC50 | SMILES
> 7.00 | O=C(O)CN1CCC(NCCN(CCC(c2ccccc2)c2ccccc2)C(=O)Nc2nc3ccccc3s2)CC1 [Example 162, (4-{2-[3-Benzothiazol-2-yl-1-(3,3-diphenyl-propyl)-ureido]-ethylamino}-piperidin-1-yl)acetic acid]
6.00 to 7.00 | CCOC(=O)CNCCN(CCC(c1ccccc1)c1ccccc1)C(=O)Nc1nc2ccccc2s1 [Example 151, {2-[3-Benzothiazol-2-yl-1-(3,3-diphenyl-propyl)-ureido]-ethylamino}-acetic acid ethyl ester]
> 7.00 | O=C1CC[C@@H](NCCN(CCC(c2ccccc2)c2ccccc2)C(=O)Nc2nc3ccccc3s2)CN1 [Example 144, (R)-3-(benzo[d]thiazol-2-yl)-1-(3,3-diphenylpropyl)-1-(2-(6-oxopiperidin-3-ylamino)ethyl)urea]
6.00 to 7.00 | CN(C)S(=O)(=O)NCCN(CCC(c1ccccc1)c1ccccc1)C(=O)Nc1nc2ccccc2s1 [Example 174, N,N-dimethylamino-sulfonyl-{2-[3-benzothiazol-2-yl-1-(3,3-diphenyl-propyl)-ureido]-ethyl}-amide]
5.30 to 6.00 | O=C(Nc1nc2ccccc2s1)N(CCNC1CCSCC1)CCC(c1ccccc1)c1ccccc1 [Example 155, 3-Benzothiazol-2-yl-1-(3,3-diphenyl-propyl)-1-[2-(tetrahydro-thiopyran-4-ylamino)ethyl]-urea]
6.00 to 7.00 | CC(C)(C)OC(=O)CN1CCC(NCCN(CCC(c2ccccc2)c2ccccc2)C(=O)Nc2nc3ccccc3s2)CC1 [Example 158, (4-{2-[3-Benzothiazol-2-yl-1-(3,3-diphenyl-propyl)-ureido]-ethylamino}-piperidin-1-yl)acetic acid tert-butyl ester]
6.00 to 7.00 | CC(=O)Nc1ccc(S(=O)(=O)NCCN(CCC(c2ccccc2)c2ccccc2)C(=O)Nc2nc3ccccc3s2)cc1 [Example 170, N-(4-{2-[3-Benzothiazol-2-yl-1-(3,3-diphenylpropyl)-ureido]-ethylsulfamoyl}-phenyl)acetamide]
6.00 to 7.00 | CC(C)(C)OC(=O)N1CCC(NCCN(CCC(c2ccccc2)c2ccccc2)C(=O)Nc2nc3ccccc3s2)CC1 [Example 159, 4-{2-[3-Benzothiazol-2-yl-1-(3,3-diphenyl-propyl)-ureido]-ethylamino}-piperidine-1-carboxylic acid tert-butyl ester]

Reference: patent US20080125424A1, “Derivatives of urea and related diamines, methods for their manufacture, and uses therefor” (priority 2006, published 2008)
